Counter-ions that a name gives are not always drawn.
Target: T1, Human recombinant insulin (Ins); protofibrils / mature fibrils (Homo sapiens, UniProt P01308)
T1 construct: mature two-chain insulin (cut from proinsulin), recombinant, PanEco; aggregated to amyloid fibrils at pH 2, 62 °C; not the native monomer
Experiment: fluorescence-mode nanoparticle tracking (fibril staining)
Format: binding
Details: mature amyloid fibrils, not native insulin

T1 sequence (P01308 25-54): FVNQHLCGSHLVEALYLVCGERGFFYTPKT
T1 sequence (P01308 90-110): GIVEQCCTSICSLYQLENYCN

CC[n+]1c(/C=C/c2c(C)cc(N(C)C)cc2C)sc2ccccc21 [2M-DMASEBT, trans2-(′-(dimethylamino)-2,6-dimethylstyryl)-3-ethyl-1,3-benzothiazole tosylate]
fluorescence-mode nanoparticle tracking (fibril staining): Fibrils were stained using the ThT derivative 2M-DMASEBT
